Reference: patent publication US7964624B1, “Inhibitors of serine proteases” (priority 2005, dated 2011)

Tests used:
[1] = biological target: T1, full-length hepatitis C viral protein NS3•4A (Hepatitis C virus genotype 1a, UniProt P27958); test: biochemical; set-up: species or system HCV sub-type strain 1a; settings: Enzyme Assay 2 (HCV NS3 Peptide Cleavage Assay) activity, apparent Ki class
T1 construct: hexa-histidine (N); made in house; host or cells: Sf9 insect cells (baculovirus, pVL1392)

[2] = biological target: T2, HCV NS3 protease domain (Hepatitis C virus genotype 1b, UniProt Q9WMX2); test: biochemical; settings: Enzyme Assay 1 (HCV NS3 Protease Domain Peptide Cleavage Assay) activity, apparent Ki class
T2 construct: The first 181 amino acids of NS3 (residues 1027-1207 of the viral polyprotein); hexa-histidine (C); made in house; host or cells: E. coli BL21/DE3 pLysS

With `CCC[C@H](NC(=O)[C@@H]1C[C@]2(CC(c3cccc(Cl)c3)=NO2)CN1C(=O)[C@@H](NC(=O)CC1CCN(C(C)=O)CC1)C(C)(C)C)C(=O)C(=O)NC1CC1` [Compound 304] the Ki [1] was under 0.1 µM and the Ki [2] was 0.1 to 0.5 µM.

With `C=C[C@@H]1C[C@]1(NC(=O)[C@@H]1C[C@]2(CC(c3cccc(Cl)c3)=NO2)CN1C(=O)[C@@H](NC(=O)OC(C)(C)C)C(C)(C)C)C(=O)O` [Compound 439] the Ki [1] was over 0.5 µM and the Ki [2] was over 0.5 µM.

`CCC[C@H](NC(=O)[C@@H]1C[C@]2(CC(c3csc(Cl)c3)=NO2)CN1C(=O)[C@@H](NC(=O)CC1CCCCC1)C(C)(C)C)C(=O)C(=O)NC1CC1` [Compound 62] gave a Ki [1] of 0.1 to 0.5 µM and a Ki [2] of 0.1 to 0.5 µM.

`CCC[C@H](NC(=O)[C@@H]1C[C@]2(CC(c3cccc(Cl)c3)=NO2)CN1C(=O)[C@@H](NC(=O)CC1CCCCC1)C(C)(C)C)C(=O)C(=O)N[C@@H](C)c1ccccc1` [Compound 546] showed a Ki [1] of 0.1 to 0.5 µM and a Ki [2] of 0.1 to 0.5 µM.

Work on `CCC[C@H](NC(=O)[C@@H]1C[C@]2(CC(c3cccnc3OC)=NO2)CN1C(=O)[C@@H](NC(=O)CC1CCCCC1)C(C)(C)C)C(=O)C(=O)NC1CC1` [Compound 469] yielded a Ki [1] of 0.1 to 0.5 µM and a Ki [2] of over 0.5 µM.

With `CCC[C@H](NC(=O)[C@@H]1C[C@]2(CC(c3cccc(Cl)c3)=NO2)CN1C(=O)[C@@H](NC(=O)CC1CCCCC1)C(C)(C)C)C(=O)C(=O)NCc1cc(OC)cc(OC)c1` [Compound 127] the Ki [1] was 0.1 to 0.5 µM and the Ki [2] was 0.1 to 0.5 µM.

`CCC[C@H](NC(=O)[C@@H]1C[C@]2(CC(c3cc(Cl)cnc3OC)=NO2)CN1C(=O)[C@@H](NC(=O)CC1CCCCC1)C(C)(C)C)C(=O)C(=O)NC1CC1` [Compound 165] was tested, and the Ki [1] was under 0.1 µM and the Ki [2] was 0.1 to 0.5 µM.

Work on `CCC[C@H](NC(=O)[C@@H]1C[C@]2(CC(c3cccc(Cl)c3)=NO2)CN1C(=O)[C@@H](CC(=O)NC(C)C)C(C)C)C(=O)C(=O)NC1CC1` [Compound 280] yielded a Ki [1] of over 0.5 µM and a Ki [2] of over 0.5 µM.

With `CCC[C@H](NC(=O)[C@@H]1C[C@]2(CC(c3cccc(Cl)c3)=NO2)CN1C(=O)[C@@H](NC(=O)CC1CCCCC1)C(C)(C)C)C(=O)C(=O)NCCOC` [Compound 404] the Ki [1] was 0.1 to 0.5 µM and the Ki [2] was over 0.5 µM.

Compound `CCC[C@H](NC(=O)[C@@H]1C[C@]2(CC(c3cccc(Cl)c3)=NO2)CN1C(=O)c1cccc(S(=O)(=O)N2CCc3ccccc3C2)c1)C(=O)C(=O)NC1CC1` [Compound 328] has a Ki [1] of over 0.5 µM and a Ki [2] of over 0.5 µM.

In the case of `CCC[C@H](NC(=O)[C@@H]1C[C@]2(CC(c3cccc(Cl)c3)=NO2)CN1C(=O)[C@@H](NC(=O)CC1CCOC(C)(C)C1)C(C)(C)C)C(=O)C(=O)NC1CC1` (some centres unmarked) [Compound 121], the Ki [1] is reported as under 0.1 µM and the Ki [2] is reported as 0.1 to 0.5 µM.

`CCC[C@H](NC(=O)[C@@H]1C[C@]2(CC(c3cccc(Cl)c3)=NO2)CN1C(=O)[C@@H](NC(=O)CC1CCCCC1)C(C)(C)C)C(=O)C(=O)NCCC1C(=O)Nc2ccccc21` (some centres unmarked) [Compound 458] showed a Ki [1] of over 0.5 µM and a Ki [2] of over 0.5 µM.

Compound `CCC[C@H](NC(=O)[C@@H]1C[C@]2(CC(c3cccc(Cl)c3)=NO2)CN1C(=O)[C@@H](NC(=O)CC1CCCCC1)C(C)(C)C)C(=O)C(=O)NCCc1cccnc1` [Compound 447] has a Ki [1] of 0.1 to 0.5 µM and a Ki [2] of over 0.5 µM.

Compound `CCC[C@H](NC(=O)[C@@H]1C[C@]2(CC(c3cccc(Cl)c3)=NO2)CN1C(=O)[C@@H](NC(=O)CC1CCCCC1)C(C)(C)C)C(=O)C(=O)NCc1nc2ccccc2s1` [Compound 17] has a Ki [1] of 0.1 to 0.5 µM and a Ki [2] of over 0.5 µM.

Work on `CCC[C@H](NC(=O)[C@@H]1C[C@]2(CC(c3cccc(Cl)c3)=NO2)CN1C(=O)[C@@H](NC(=O)CC1C[C@@H](C)O[C@@H](C)C1)C(C)(C)C)C(=O)C(=O)NC1CC1` (some centres unmarked) [Compound 442] yielded a Ki [1] of under 0.1 µM and a Ki [2] of 0.1 to 0.5 µM.

With `CCC[C@H](NC(=O)[C@@H]1C[C@]2(CC(c3cccc(Cl)c3)=NO2)CN1C(=O)[C@@H](NC(=O)CC1CCCCC1)C(C)(C)C)C(=O)C(=O)NC1CCS(=O)(=O)C1` (some centres unmarked) [Compound 565] the Ki [1] was over 0.5 µM and the Ki [2] was over 0.5 µM.

Work on `C=C[C@@H]1C[C@]1(NC(=O)[C@@H]1C[C@]2(CC(c3cccc(Cl)c3)=NO2)CN1C(=O)[C@@H](NC(=O)OC1CCCC1)C(C)(C)C)C(=O)NS(=O)(=O)C1CC1` [Compound 190] yielded a Ki [1] of under 0.1 µM and a Ki [2] of 0.1 to 0.5 µM.

`CCC[C@H](NC(=O)[C@@H]1C[C@]2(CC(c3cccc(Cl)c3)=NO2)CN1C(=O)CC(NS(=O)(=O)c1ccc(OC)cc1)C(C)C)C(=O)C(=O)NC1CC1` (some centres unmarked) [Compound 395] gave a Ki [1] of over 0.5 µM and a Ki [2] of over 0.5 µM.

In the case of `CCC[C@H](NC(=O)[C@@H]1C[C@]2(CC(c3cc(Cl)c4c(c3)OCCN4C)=NO2)CN1C(=O)[C@@H](NC(=O)CC1CCCCC1)C(C)(C)C)C(=O)C(=O)NC1CC1` [Compound 315], the Ki [1] is reported as under 0.1 µM and the Ki [2] is reported as under 0.1 µM.

`CCC[C@H](NC(=O)[C@@H]1CC2(CC(c3cccc(Cl)c3)=NO2)CN1C(=O)[C@H](CCSCC)NC(C)=O)C(=O)C(=O)NC1CC1` (some centres unmarked) [Compound 54] gave a Ki [1] of 0.1 to 0.5 µM and a Ki [2] of over 0.5 µM.

Compound `CCCNC(=O)C(=O)[C@H](CCC)NC(=O)[C@@H]1C[C@]2(CC(c3cccc(Cl)c3)=NO2)CN1C(=O)[C@@H](NC(=O)CC1CCCCC1)C(C)(C)C` [Compound 508] has a Ki [1] of 0.1 to 0.5 µM and a Ki [2] of 0.1 to 0.5 µM.

With `CCC[C@H](NC(=O)[C@@H]1C[C@]2(CC(c3cccc(Cl)c3)=NO2)CN1C(=O)[C@@H](NC(=O)CC1CCCCC1)C(C)(C)C)C(=O)C(=O)N[C@H](C)c1ccccc1` [Compound 296] the Ki [1] was over 0.5 µM and the Ki [2] was over 0.5 µM.

In the case of `CCC[C@H](NC(=O)[C@@H]1C[C@]2(CC(c3cccc(Cl)c3)=NO2)CN1C(=O)[C@@H](NC(=O)[C@@H]1CCC(=O)N1Cc1cccs1)C(C)(C)C)C(=O)C(=O)NC1CC1` [Compound 30], the Ki [1] is reported as under 0.1 µM and the Ki [2] is reported as 0.1 to 0.5 µM.

`CCC[C@H](NC(=O)[C@@H]1C[C@]2(CC(c3cccc(Cl)c3)=NO2)CN1C(=O)c1ccc(Cl)cc1Nc1ccc(OC)nc1)C(=O)C(=O)NC1CC1` [Compound 248] gave a Ki [1] of over 0.5 µM and a Ki [2] of over 0.5 µM.

In the case of `CCC[C@H](NC(=O)[C@@H]1C[C@]2(CC(c3cc(Cl)c(OC)cc3C)=NO2)CN1C(=O)[C@@H](NC(=O)CC1CCCCC1)C(C)(C)C)C(=O)C(=O)NC1CC1` [Compound 366], the Ki [1] is reported as under 0.1 µM and the Ki [2] is reported as 0.1 to 0.5 µM.

`CCC[C@H](NC(=O)[C@@H]1C[C@]2(CC(c3cccc(Cl)c3)=NO2)CN1C(=O)[C@@H](NC(=O)CC1CCCCC1)C(C)(C)C)C(=O)C(=O)NC1(c2ccccc2)CC1` [Compound 429] was tested, and the Ki [1] was over 0.5 µM and the Ki [2] was over 0.5 µM.

Work on `CCC[C@H](NC(=O)[C@@H]1C[C@]2(CC(c3cccc(Cl)c3)=NO2)CN1C(=O)[C@@H](NC(=O)CC1CCCCC1)C(C)(C)C)C(=O)C(=O)N[C@@H](C)c1cccc(OC)c1` [Compound 255] yielded a Ki [1] of 0.1 to 0.5 µM and a Ki [2] of 0.1 to 0.5 µM.

`CCC[C@H](NC(=O)[C@@H]1C[C@]2(CC(c3cccc(Cl)c3)=NO2)CN1C(=O)C1(C(N)=O)CC1)C(=O)C(=O)NC1CC1` [Compound 227] was tested, and the Ki [1] was over 0.5 µM and the Ki [2] was over 0.5 µM.

`CCC[C@H](NC(=O)[C@@H]1C[C@]2(CC(C(=O)c3ccccc3)=NO2)CN1C(=O)[C@@H](NC(=O)NC(C)(C)C)C(C)(C)C)C(=O)C(=O)NC1CC1` [Compound 119] gave a Ki [1] of 0.1 to 0.5 µM and a Ki [2] of 0.1 to 0.5 µM.

`CCC[C@H](NC(=O)[C@@H]1C[C@]2(CC(c3cccc(Cl)c3)=NO2)CN1C(=O)[C@@H](NC(=O)CC1CCCCC1)C(C)(C)C)C(=O)C(=O)Nc1cccc(C#N)c1` [Compound 588] showed a Ki [1] of over 0.5 µM and a Ki [2] of over 0.5 µM.

Work on `CCC[C@H](NC(=O)[C@@H]1C[C@]2(CC(c3cccc(Cl)c3)=NO2)CN1C(=O)[C@H](Cc1ccsc1)NC(=O)CC1CCCCC1)C(=O)C(=O)NC1CC1` [Compound 185] yielded a Ki [1] of 0.1 to 0.5 µM and a Ki [2] of over 0.5 µM.
